# Results published in ChEMBL document CHEMBL1145206, “Design, synthesis and structure-activity relationships of novel taxane-based multidrug resistance reversal agents” (2005).
# Tested on: MDA-MB-435
# Assay: MDR-reversal activity evaluated against the resistant human breast tumor cell line MDA-435/LCC6-MDR
# Assay type: functional
# Set-up: concentration or dose not given beside the values
row,Compound,Reduction
1,CC(=O)O[C@H]1C(=O)[C@]2(C)[C@@H](OC(=O)c3cnc4ccccc4c3)C[C@H]3OC[C@@]3(OC(C)=O)[C@H]2[C@H](OC(=O)c2ccccc2)[C@]2(O)C[C@H](OC(C)=O)C(C)=C1C2(C)C,41%
2,CC(=O)O[C@H]1C(=O)[C@]2(C)[C@@H](OC(=O)/C=C/c3ccc(C(=O)c4ccccc4)cc3)C[C@H]3OC[C@@]3(OC(C)=O)[C@H]2[C@H](OC(=O)c2ccccc2)[C@]23OC(=O)O[C@H]2[C@H](OC(C)=O)C(C)=C1C3(C)C,94%
3,CC(=O)O[C@H]1C(=O)[C@]2(C)[C@@H](OC(=O)/C=C/c3ccc(OC(=O)c4ccc(Br)cc4)cc3)C[C@H]3OC[C@@]3(OC(C)=O)[C@H]2[C@H](OC(=O)c2ccccc2)[C@]23OC(=O)O[C@H]2[C@H](OC(C)=O)C(C)=C1C3(C)C,34%
4,CC(=O)O[C@H]1C(=O)[C@]2(C)[C@@H](OC(=O)/C=C/c3ccc(Oc4ccccc4)cc3)C[C@H]3OC[C@@]3(OC(C)=O)[C@H]2[C@H](OC(=O)c2ccccc2)[C@]2(O)C[C@H](OC(C)=O)C(C)=C1C2(C)C,90%
5,COc1ccc(CC(=O)O[C@H]2C(=O)[C@]3(C)[C@@H](OC(=O)/C=C/c4ccc(C(=O)c5ccccc5)cc4)C[C@H]4OC[C@@]4(OC(C)=O)[C@H]3[C@H](OC(=O)c3ccccc3)[C@]3(O)C[C@H](OC(C)=O)C(C)=C2C3(C)C)cc1,7%
6,CC(=O)O[C@H]1C[C@@]2(O)[C@@H](OC(=O)c3ccccc3)[C@@H]3[C@]4(OC(C)=O)CO[C@@H]4C[C@H](OC(C)=O)[C@@]3(C)C(=O)[C@H](OC(=O)/C=C/c3ccc(Oc4ccccc4)cc3)C(=C1C)C2(C)C,29%
7,CC(=O)O[C@H]1C(=O)[C@]2(C)[C@@H](OC(=O)/C=C/c3ccc(OC(=O)c4ccc[nH]4)cc3)C[C@H]3OC[C@@]3(OC(C)=O)[C@H]2[C@H](OC(=O)c2ccccc2)[C@]23OC(=O)O[C@H]2[C@H](OC(C)=O)C(C)=C1C3(C)C,63%
8,COC(=O)O[C@H]1C(=O)[C@]2(C)[C@@H](OC(=O)/C=C/c3ccc(C(=O)c4ccccc4)cc3)C[C@H]3OC[C@@]3(OC(C)=O)[C@H]2[C@H](OC(=O)c2ccccc2)[C@]2(O)C[C@H](OC(C)=O)C(C)=C1C2(C)C,91%
9,CC(=O)O[C@H]1C(=O)[C@]2(C)[C@@H](OC(C)=O)C[C@H]3OC[C@@]3(OC(C)=O)[C@H]2[C@H](OC(=O)/C=C/c2ccc(C(=O)c3ccccc3)cc2)[C@]2(O)C[C@H](OC(C)=O)C(C)=C1C2(C)C,27%
10,COc1ccccc1C(=O)Oc1ccc(/C=C/C(=O)O[C@H]2C[C@H]3OC[C@@]3(OC(C)=O)[C@H]3[C@H](OC(=O)c4ccccc4)[C@]4(O)C[C@H](OC(C)=O)C(C)=C([C@@H](OC(C)=O)C(=O)[C@]23C)C4(C)C)cc1,57%
11,CC(=O)O[C@H]1C(=O)[C@]2(C)[C@@H](OC(=O)/C=C/c3ccc(C(=O)Oc4ccccc4)cc3)C[C@H]3OC[C@@]3(OC(C)=O)[C@H]2[C@H](OC(=O)c2ccccc2)[C@]2(O)C[C@H](OC(C)=O)C(C)=C1C2(C)C,27%
12,CC(=O)O[C@H]1C(=O)[C@]2(C)[C@@H](OC(=O)/C=C/c3ccc(OC(=O)c4cc5ccccc5[nH]4)cc3)C[C@H]3OC[C@@]3(OC(C)=O)[C@H]2[C@H](OC(=O)c2ccccc2)[C@]23OC(=O)O[C@H]2[C@H](OC(C)=O)C(C)=C1C3(C)C,43%
13,CC(=O)O[C@H]1C(=O)[C@]2(C)[C@@H](OC(=O)/C=C/c3ccc(OC(=O)c4ccccc4)cc3)C[C@H]3OC[C@@]3(OC(C)=O)[C@H]2[C@H](OC(=O)c2ccccc2)[C@]23OC(=O)O[C@H]2[C@H](OC(C)=O)C(C)=C1C3(C)C,95%
14,CC(=O)O[C@H]1C(=O)[C@]2(C)[C@@H](OC(=O)/C=C/c3cccc(OC(=O)c4ccccc4)c3)C[C@H]3OC[C@@]3(OC(C)=O)[C@H]2[C@H](OC(=O)c2ccccc2)[C@]2(O)C[C@H](OC(C)=O)C(C)=C1C2(C)C,17%
15,CC(=O)O[C@H]1C(=O)[C@]2(C)[C@@H](OC(=O)/C=C/c3ccc(O)cc3)C[C@H]3OC[C@@]3(OC(C)=O)[C@H]2[C@H](OC(=O)c2ccccc2)[C@]2(O)C[C@H](OC(C)=O)C(C)=C1C2(C)C,34%
16,CC(=O)O[C@H]1C(=O)[C@]2(C)[C@@H](OC(=O)c3ccnc4ccccc34)C[C@H]3OC[C@@]3(OC(C)=O)[C@H]2[C@H](OC(=O)c2ccccc2)[C@]2(O)C[C@H](OC(C)=O)C(C)=C1C2(C)C,36%
17,CC(=O)O[C@H]1C(=O)[C@]2(C)[C@@H](OC(=O)CCc3ccc(C(O)c4ccccc4)cc3)C[C@H]3OC[C@@]3(OC(C)=O)[C@H]2[C@H](OC(=O)c2ccccc2)[C@]2(O)C[C@H](OC(C)=O)C(C)=C1C2(C)C (stereo partly drawn),48%
18,COc1cccc(C(=O)Oc2ccc(/C=C/C(=O)O[C@H]3C[C@H]4OC[C@@]4(OC(C)=O)[C@H]4[C@H](OC(=O)c5ccccc5)[C@]5(O)C[C@H](OC(C)=O)C(C)=C([C@@H](OC(C)=O)C(=O)[C@]34C)C5(C)C)cc2)c1,34%
19,CC(=O)O[C@H]1C[C@@]2(O)[C@@H](OC(=O)c3ccccc3)[C@@H]3[C@]4(OC(C)=O)CO[C@@H]4C[C@H](OC(C)=O)[C@@]3(C)C(=O)[C@H](OC(=O)/C=C/c3cccc(NC(=O)c4ccccc4)c3)C(=C1C)C2(C)C,43%

row,Compound,Reduction
1,CCC(=O)O[C@H]1C(=O)[C@]2(C)[C@@H](OC(=O)/C=C/c3ccc(C(=O)c4ccccc4)cc3)C[C@H]3OC[C@@]3(OC(C)=O)[C@H]2[C@H](OC(=O)c2ccccc2)[C@]2(O)C[C@H](OC(C)=O)C(C)=C1C2(C)C,88%
2,CC(=O)O[C@H]1C(=O)[C@]2(C)[C@@H](OC(=O)COc3cccc4ccccc34)C[C@H]3OC[C@@]3(OC(C)=O)[C@H]2[C@H](OC(=O)c2ccccc2)[C@]2(O)C[C@H](OC(C)=O)C(C)=C1C2(C)C,60%
3,CC(=O)O[C@H]1C[C@@]2(O)[C@@H](OC(=O)c3ccccc3)[C@@H]3[C@]4(OC(C)=O)CO[C@@H]4C[C@H](OC(=O)/C=C/c4ccc(C(=O)c5ccccc5)cc4)[C@@]3(C)C(=O)[C@H](OC(=O)c3ccccc3)C(=C1C)C2(C)C,51%
4,CC(=O)O[C@H]1C(=O)[C@]2(C)[C@@H](OC(C)=O)C[C@H]3OC[C@@]3(OC(C)=O)[C@H]2[C@H](OC(=O)CCc2ccc3ccccc3c2)[C@]2(O)C[C@H](OC(C)=O)C(C)=C1C2(C)C,24%
5,CC(=O)O[C@H]1C(=O)[C@]2(C)[C@@H](OC(=O)COc3ccc4ccccc4c3)C[C@H]3OC[C@@]3(OC(C)=O)[C@H]2[C@H](OC(=O)c2ccccc2)[C@]2(O)C[C@H](OC(C)=O)C(C)=C1C2(C)C,86%
6,C=C(c1ccccc1)c1cccc(/C=C/C(=O)O[C@H]2C[C@H]3OC[C@@]3(OC(C)=O)[C@H]3[C@H](OCc4ccccc4)[C@]4(O)C[C@H](OC(C)=O)C(C)=C([C@@H](OC(C)=O)C(=O)[C@]23C)C4(C)C)c1,52%
7,CC(=O)O[C@H]1C(=O)[C@]2(C)[C@@H](OC(=O)/C=C/c3ccc(C(=O)c4ccccc4)cc3)C[C@H]3OC[C@@]3(OC(C)=O)[C@H]2[C@H](OC(=O)C2CCCCC2)[C@]2(O)C[C@H](OC(C)=O)C(C)=C1C2(C)C,86%
8,COc1cccc(C(=O)O[C@H]2[C@@H]3[C@]4(OC(C)=O)CO[C@@H]4C[C@H](OC(=O)/C=C/c4ccc(C(=O)c5ccccc5)cc4)[C@@]3(C)C(=O)[C@H](OC(C)=O)C3=C(C)[C@@H](OC(C)=O)C[C@]2(O)C3(C)C)c1,95%
9,CC(=O)O[C@H]1C(=O)[C@]2(C)[C@@H](OC(=O)c3ccc(C(=O)c4ccccc4)cc3)C[C@H]3OC[C@@]3(OC(C)=O)[C@H]2[C@H](OC(=O)c2ccccc2)[C@]23OC(=O)O[C@H]2[C@H](OC(C)=O)C(C)=C1C3(C)C,92%
10,CC(=O)O[C@H]1C[C@@]2(O)[C@@H](OC(=O)c3ccccc3)[C@@H]3[C@]4(OC(C)=O)CO[C@@H]4C[C@H](OC(C)=O)[C@@]3(C)C(=O)[C@H](OC(=O)/C=C/c3ccc(C(=O)Oc4ccccc4)cc3)C(=C1C)C2(C)C,24%
11,CC(=O)O[C@H]1C(=O)[C@]2(C)[C@@H](OC(=O)/C=C/c3ccc4ccccc4c3)C[C@H]3OC[C@@]3(OC(C)=O)[C@H]2[C@H](OC(=O)c2ccccc2)[C@]23OC(=O)O[C@H]2[C@H](OC(C)=O)C(C)=C1C3(C)C,60%
12,COc1ccc(C(=O)Oc2ccc(/C=C/C(=O)O[C@H]3C[C@H]4OC[C@@]4(OC(C)=O)[C@H]4[C@H](OC(=O)c5ccccc5)[C@]56OC(=O)O[C@H]5[C@H](OC(C)=O)C(C)=C([C@@H](OC(C)=O)C(=O)[C@]34C)C6(C)C)cc2)cc1,69%
13,COc1ccccc1C(=O)Oc1ccc(/C=C/C(=O)O[C@H]2C[C@H]3OC[C@@]3(OC(C)=O)[C@H]3[C@H](OC(=O)c4ccccc4)[C@]45OC(=O)O[C@H]4[C@H](OC(C)=O)C(C)=C([C@@H](OC(C)=O)C(=O)[C@]23C)C5(C)C)cc1,79%
14,CC(=O)O[C@H]1C(=O)[C@]2(C)[C@@H](OC(=O)CC3c4ccccc4-c4ccccc43)C[C@H]3OC[C@@]3(OC(C)=O)[C@H]2[C@H](OC(=O)c2ccccc2)[C@]2(O)C[C@H](OC(C)=O)C(C)=C1C2(C)C,67%
15,CC(=O)O[C@H]1C(=O)[C@]2(C)[C@@H](OC(=O)CCCCc3ccc(C(=O)c4ccccc4)cc3)C[C@H]3OC[C@@]3(OC(C)=O)[C@H]2[C@H](OC(=O)c2ccccc2)[C@]23OC(=O)O[C@H]2[C@H](OC(C)=O)C(C)=C1C3(C)C,0%
16,CC(=O)O[C@H]1C(=O)[C@]2(C)[C@@H](OC(=O)CCc3ccc4c(c3)C(=O)c3ccccc3C4=O)C[C@H]3OC[C@@]3(OC(C)=O)[C@H]2[C@H](OC(=O)c2ccccc2)[C@]2(O)C[C@H](OC(C)=O)C(C)=C1C2(C)C,29%
17,COc1ccc(C(=O)Oc2ccc(/C=C/C(=O)O[C@H]3C[C@H]4OC[C@@]4(OC(C)=O)[C@H]4[C@H](OC(=O)c5ccccc5)[C@]5(O)C[C@H](OC(C)=O)C(C)=C([C@@H](OC(C)=O)C(=O)[C@]34C)C5(C)C)cc2)cc1,39%
18,CC(=O)O[C@H]1C(=O)[C@]2(C)[C@@H](OC(=O)/C=C/c3ccc(OC(=O)c4ccc([N+](=O)[O-])cc4)cc3)C[C@H]3OC[C@@]3(OC(C)=O)[C@H]2[C@H](OC(=O)c2ccccc2)[C@]23OC(=O)O[C@H]2[C@H](OC(C)=O)C(C)=C1C3(C)C,27%
19,CC(=O)O[C@H]1C(=O)[C@]2(C)[C@@H](OC(=O)/C=C/c3ccc(C(=O)c4ccc(F)cc4)cc3)C[C@H]3OC[C@@]3(OC(C)=O)[C@H]2[C@H](OC(=O)c2ccccc2)[C@]2(O)C[C@H](OC(C)=O)C(C)=C1C2(C)C,92%
